# Experimental data taken from article doi:10.1101/2021.02.13.431112v1 (bioRxiv, 2021).
# Key:
# [1] = system: MCF-10A normal epithelial breast cells; assay: Confocal uptake of NBD-Def1; type: cell-based; settings: confocal microscopy, 5 times higher dose (200 mg/mL)
# MDA-MB-231R cells = assay: Confocal uptake of NBD-Def1; type: cell-based; settings: confocal microscopy, 20, 6.6 or 2.2 ug/ml, 15 min, 37C, N=4
# fibroblasts cells = assay: Confocal uptake of NBD-Def1; type: cell-based; settings: confocal microscopy, 5 times higher dose (200 mg/mL)
# SKOV3 cells = assay: Confocal uptake of NBD-Def1; type: cell-based; settings: confocal microscopy, 20, 6.6 or 2.2 ug/ml, 15 min, 37C, N=4
# [2] = system: induced pluripotent stem cell derived cardiomyocytes (iPSC); assay: MTT viability assay, IC-50; type: cell-based, human
# thioredoxin (Trx) = molecular target: T1, thioredoxin (Trx) (Homo sapiens, UniProt P10599); assay: Thioredoxin redox Western blot; type: cell-based; settings: 20 μM Def1, Doxorubicin resistant MDA-MB-231-R cells, N=4
# T1 sequence (P10599 1-105): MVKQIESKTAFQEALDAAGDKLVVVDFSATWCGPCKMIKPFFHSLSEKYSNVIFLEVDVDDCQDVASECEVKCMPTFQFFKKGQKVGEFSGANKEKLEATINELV
# MCF-10A Epithelial Cells = assay: MTT viability assay, IC-50; type: cell-based; settings: normal epithelial breast cells, 24 h
# [3] = 15N NMR chemical shift mapping of Def1 binding to GlcCer; settings: 15N-labeled Def1, chemical shift perturbation, T1, 15N-1H NOE; N=3
# ASK1 = assay: Immunoblot of ASK1 Thr845 phosphorylation; type: cell-based; settings: 50 μM, 60 minutes, MDA-MB-231 cells, vs solvent control and NAC control, N=4
# [4] = system: Bone Marrow Cells MSC-001F; assay: Viability assay, IC-50; type: cell-based; settings: normal cells
# MCF-7R cells = assay: Ceramide release by LC-MS/MS; type: cell-based; settings: 20 μM, 6 hrs, Doxorubicin resistant MCF-7R cells, n=4, preliminary
# MDA-MB-231 = settings: read-out: IC-50, MDA-MB-231; unit printed only in neighbouring columns; ref 39b; cited from earlier work
# BT-549 = settings: read-out: IC-50, BT-549; unit printed only in neighbouring columns; ref 39b; cited from earlier work
# MCF-7 = settings: read-out: IC-50, MCF-7; unit printed only in neighbouring columns; ref 39b; cited from earlier work
compound,measurement,setting,value
"6-((N-(7-nitrobenz-2-oxa-1, 3-diazol-4-yl) amino) hexanoyl (NBD)-Def1 [NBD-Def1]","uptake, normal epithelial breast cells MCF-10A",[1],did not pick up
same,"uptake, MDA-MB-231R",MDA-MB-231R cells,concentration dependent uptake
same,"uptake, fibroblasts",fibroblasts cells,did not pick up
same,"uptake, SKOV3",SKOV3 cells,concentration dependent uptake
"COc1cccc2c1C(=O)c1c(O)c3c(c(O)c1C2=O)C[C@@](O)(C(=O)CO)C[C@@H]3O[C@H]1C[C@H](N)[C@H](O)[C@H](C)O1 [Doxorubicin, reference compound]",more potency for cardiomyocytes and bone marrow cells,[2]; in contrast to Def1,10-15 times
Medicago sativa Defensin 1 [Def1],oxidation of Trx (new band at 28 KDa),thioredoxin (Trx),oxidation of Trx
same,"IC-50, MCF-10A Epithelial Cells",MCF-10A Epithelial Cells,> 200 µM
same,"IC-50, iPSC (induced pluripotent stem cell derived cardiomyocytes)","[2]; human iPSC cardiomyocytes, MTT, 24 h",> 180 µM
same,binding to GlcCer,[3],binds to GlcCer at two regions
same,phosphorylation of Thr845 residue of ASK1,ASK1,significant increase
same,"IC-50, Bone Marrow Cells MSC-001F",[4],> 150 µM
same,accumulation of ceramide,MCF-7R cells,enhanced accumulation of ceramide
"hBD-1: Human Beta Defensin (hBD-1) with three S-S bonds (DHYNCVSSGGQCLYSACPIFTKIQGTCYRGKAKCCK; Beta-defensin 1; UniProt P60022 33-68, looked up)",IC50,MDA-MB-231,18 µM
same,IC50,BT-549,17 µM
same,IC50,MCF-7,21 µM
